According to US12723063B2, “GIPR-agonist compounds” (Eli Lilly and Company, priority 2019, dated 2026):
*1 amine or outer side, *2 acyl side, *3 side chain or, on linkers, in order; H or OH if unused. Where a SMILES comes first, the peptide text is derived from it. Side-chain parts run from the residue outwards. [ ]: non-standard residue; d: D form. The star is where a group is joined. C20 diacid = O=C(O)CCCCCCCCCCCCCCCCCCC(=O)*; C18 diacid = O=C(O)CCCCCCCCCCCCCCCCC(=O)*; γGlu = O=C(O)[C@H](CCC(=O)[*:2])N[*:1]; αMeF = C[C@](N)(Cc1ccccc1)C(=O)O; 4Pal = N[C@@H](Cc1ccncc1)C(=O)O; αMeL = CC(C)C[C@](C)(N)C(=O)O; Orn = NCCC[C@H](N)C(=O)O; AEEA = NCCOCCOCC(=O)O; Aib = CC(C)(N)C(=O)O

How the values were obtained:
human GIPR = target: T1, human GIPR (Homo sapiens, UniProt P48546); assay: [125I]-GIP binding, SPA with WGA beads, 0.1% bacitracin; conditions: geometric mean, read-out: hGIPR Ki
T1 construct: expressed in transfected cells; crude membranes
T1 sequence (P48546 22-466): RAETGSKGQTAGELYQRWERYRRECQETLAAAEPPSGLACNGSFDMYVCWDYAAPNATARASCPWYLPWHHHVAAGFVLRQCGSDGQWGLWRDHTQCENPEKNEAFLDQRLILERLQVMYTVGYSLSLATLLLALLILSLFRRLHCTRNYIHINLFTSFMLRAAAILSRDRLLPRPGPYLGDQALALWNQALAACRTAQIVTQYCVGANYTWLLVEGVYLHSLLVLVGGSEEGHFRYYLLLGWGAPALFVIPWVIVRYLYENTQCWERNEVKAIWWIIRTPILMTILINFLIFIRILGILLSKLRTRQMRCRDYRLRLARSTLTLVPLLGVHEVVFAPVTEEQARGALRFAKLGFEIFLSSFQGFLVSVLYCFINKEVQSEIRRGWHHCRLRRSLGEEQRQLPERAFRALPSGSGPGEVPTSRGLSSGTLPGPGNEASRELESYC
Method in brief: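 Ki values are geometric means (SEM, n independent days), derived from four-parameter nonlinear regression of IC50. Membranes came from hGIPR-expressing CHO cells.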

human GLP-1R = target: T2, human GLP-1R (Homo sapiens, UniProt P43220); assay: [125I]-GLP-1 binding, SPA with WGA beads, 0.1% bacitracin; conditions: geometric mean, read-out: hGLP1R Ki
T2 construct: expressed in transfected cells; crude membranes
T2 sequence (P43220 24-463): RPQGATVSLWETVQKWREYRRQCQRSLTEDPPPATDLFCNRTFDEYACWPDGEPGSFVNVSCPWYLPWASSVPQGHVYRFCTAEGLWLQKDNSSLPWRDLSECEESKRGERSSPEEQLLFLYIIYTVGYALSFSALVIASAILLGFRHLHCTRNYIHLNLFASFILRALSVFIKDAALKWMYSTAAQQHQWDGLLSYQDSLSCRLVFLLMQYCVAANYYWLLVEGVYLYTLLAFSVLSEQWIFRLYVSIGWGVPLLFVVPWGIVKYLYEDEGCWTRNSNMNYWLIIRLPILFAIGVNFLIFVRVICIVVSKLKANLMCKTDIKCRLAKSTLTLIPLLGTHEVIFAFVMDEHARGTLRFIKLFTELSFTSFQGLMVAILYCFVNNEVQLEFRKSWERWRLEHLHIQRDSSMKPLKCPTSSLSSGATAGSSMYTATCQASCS
Method in brief: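 Binding buffer was 25 mM HEPES pH 7.4 with 2.5 mM CaCl2, 1 mM MgCl2, 0.1% (w/v) bacitracin, 0.003% Tween-20 and EDTA-free protease inhibitors. Four-parameter regression gave IC50, converted to Ki (geometric mean, SEM, n independent days).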

SMILES	Ki (human GIPR) [nM]	Ki (human GLP-1R) [nM]
CC[C@H](C)[C@H](NC(=O)[C@H](CO)NC(=O)[C@H](Cc1ccc(O)cc1)NC(=O)[C@H](CC(=O)O)NC(=O)[C@H](CO)NC(=O)[C@@H](NC(=O)[C@](C)(Cc1ccccc1)NC(=O)[C@@H](NC(=O)CNC(=O)[C@H](CCC(=O)O)NC(=O)C(C)(C)NC(=O)[C@@H](N)Cc1ccc(O)cc1)[C@@H](C)O)[C@@H](C)CC)C(=O)N[C@@H](C)C(=O)N[C@@H](CC(C)C)C(=O)N[C@@H](CC(=O)O)C(=O)N[C@@H](CCCCN)C(=O)N[C@@H](CCCCNC(=O)COCCOCCNC(=O)COCCOCCNC(=O)CC[C@H](NC(=O)CCCCCCCCCCCCCCCCC(=O)O)C(=O)O)C(=O)N[C@@H](Cc1c[nH]cn1)C(=O)N[C@@H](CCC(N)=O)C(=O)NC(C)(C)C(=O)N[C@@H](CC(=O)O)C(=O)N[C@@H](Cc1ccccc1)C(=O)N[C@H](C(=O)N[C@@H](CCC(=O)O)C(=O)N[C@@H](Cc1ccncc1)C(=O)N[C@@H](CC(C)C)C(=O)N[C@@H](CC(C)C)C(=O)N[C@@H](C)C(=O)NCC(=O)NCC(=O)N1CCC[C@H]1C(=O)N[C@@H](CO)C(=O)N[C@@H](CO)C(=O)NCC(=O)N[C@@H](C)C(=O)N1CCC[C@H]1C(=O)N1CCC[C@H]1C(=O)N1CCC[C@H]1C(=O)N[C@@H](CO)C(N)=O)C(C)C [Example 23] (H-Y[Aib]EGT[αMeF]ISDYSIALDKK([AEEA-AEEA-γGlu-C18 diacid])HQ[Aib]DFVE[4Pal]LLAGGPSSGAPPPS-NH2)	0.0341	251
CC[C@H](C)[C@H](NC(=O)[C@H](CO)NC(=O)[C@H](Cc1ccc(O)cc1)NC(=O)[C@H](CC(=O)O)NC(=O)[C@H](CO)NC(=O)[C@@H](NC(=O)[C@H](Cc1ccccc1)NC(=O)[C@@H](NC(=O)CNC(=O)[C@H](CCC(=O)O)NC(=O)[C@@H](C)NC(=O)[C@@H](N)Cc1ccc(O)cc1)[C@@H](C)O)[C@@H](C)CC)C(=O)N[C@@H](CC(C)C)C(=O)N[C@@H](CC(C)C)C(=O)N[C@@H](CC(=O)O)C(=O)N[C@@H](CCCCN)C(=O)N[C@@H](CCCCNC(=O)COCCOCCNC(=O)COCCOCCNC(=O)CC[C@H](NC(=O)CCCCCCCCCCCCCCCCC(=O)O)C(=O)O)C(=O)N[C@@H](C)C(=O)N[C@@H](CCC(N)=O)C(=O)NC(C)(C)C(=O)N[C@@H](CCC(=O)O)C(=O)N[C@@H](Cc1ccccc1)C(=O)N[C@H](C(=O)N[C@@H](CC(N)=O)C(=O)N[C@@H](Cc1c[nH]c2ccccc12)C(=O)N[C@@H](CC(C)C)C(=O)N[C@@H](CC(C)C)C(=O)N[C@@H](CCC(=O)O)C(=O)NCC(=O)NCC(=O)N1CCC[C@H]1C(=O)N[C@@H](CO)C(=O)N[C@@H](CO)C(=O)NCC(=O)N[C@@H](C)C(=O)N1CCC[C@H]1C(=O)N1CCC[C@H]1C(=O)N1CCC[C@H]1C(=O)N[C@@H](CO)C(N)=O)C(C)C [Example 28] (H-Y[dA]EGTFISDYSILLDKK([AEEA-AEEA-γGlu-C18 diacid])AQ[Aib]EFVNWLLEGGPSSGAPPPS-NH2)	0.0732	6.46
CC[C@H](C)[C@H](NC(=O)[C@H](CO)NC(=O)[C@H](Cc1ccc(O)cc1)NC(=O)[C@H](CC(=O)O)NC(=O)[C@H](CO)NC(=O)[C@@H](NC(=O)[C@H](Cc1ccccc1)NC(=O)[C@@H](NC(=O)CNC(=O)[C@H](CCC(=O)O)NC(=O)C(C)(C)NC(=O)[C@@H](N)Cc1ccc(O)cc1)[C@@H](C)O)[C@@H](C)CC)C(=O)N[C@@H](C)C(=O)N[C@@H](CC(C)C)C(=O)N[C@@H](CC(=O)O)C(=O)N[C@@H](CCCCN)C(=O)N[C@H](C(=O)N[C@@H](Cc1c[nH]cn1)C(=O)N[C@@H](CCC(N)=O)C(=O)NC(C)(C)C(=O)N[C@@H](CCC(=O)O)C(=O)N[C@@H](Cc1ccccc1)C(=O)N[C@H](C(=O)N[C@@H](CC(N)=O)C(=O)N[C@@H](Cc1ccc(O)cc1)C(=O)N[C@@H](CCCCNC(=O)COCCOCCNC(=O)COCCOCCNC(=O)CC[C@H](NC(=O)CCCCCCCCCCCCCCCCCCC(=O)O)C(=O)O)C(=O)N[C@@H](CC(C)C)C(=O)N[C@@H](C)C(=O)NCC(=O)NCC(=O)N1CCC[C@H]1C(=O)N[C@@H](CO)C(=O)N[C@@H](CO)C(=O)NCC(=O)N[C@@H](C)C(=O)N1CCC[C@H]1C(=O)N1CCC[C@H]1C(=O)N1CCC[C@H]1C(=O)N[C@@H](CO)C(N)=O)C(C)C)[C@@H](C)CC [Example 96] (H-Y[Aib]EGTFISDYSIALDKIHQ[Aib]EFVNYK([AEEA-AEEA-γGlu-C20 diacid])LAGGPSSGAPPPS-NH2)	0.232	> 908
CC[C@H](C)[C@H](NC(=O)[C@H](CO)NC(=O)[C@H](Cc1ccc(O)cc1)NC(=O)[C@H](CC(=O)O)NC(=O)[C@H](CO)NC(=O)[C@@H](NC(=O)[C@H](Cc1ccccc1)NC(=O)[C@@H](NC(=O)CNC(=O)[C@H](CCC(=O)O)NC(=O)[C@@H](C)NC(=O)[C@@H](N)Cc1ccc(O)cc1)[C@@H](C)O)[C@@H](C)CC)C(=O)N[C@@H](CC(C)C)C(=O)N[C@@H](CC(C)C)C(=O)N[C@@H](CC(=O)O)C(=O)N[C@@H](CCCCN)C(=O)N[C@@H](CCCCNC(=O)COCCOCCNC(=O)COCCOCCNC(=O)CC[C@H](NC(=O)CCCCCCCCCCCCCCCCC(=O)O)C(=O)O)C(=O)N[C@@H](C)C(=O)N[C@@H](CCC(N)=O)C(=O)NC(C)(C)C(=O)N[C@@H](CC(=O)O)C(=O)N[C@@H](Cc1ccccc1)C(=O)N[C@H](C(=O)N[C@@H](CCC(=O)O)C(=O)N[C@@H](Cc1c[nH]c2ccccc12)C(=O)N[C@@H](CC(C)C)C(=O)N[C@@H](CC(C)C)C(=O)N[C@@H](C)C(=O)N[C@@H](CCC(N)=O)C(=O)NCC(=O)N1CCC[C@H]1C(=O)N[C@@H](CO)C(=O)N[C@@H](CO)C(=O)NCC(=O)N[C@@H](C)C(=O)N1CCC[C@H]1C(=O)N1CCC[C@H]1C(=O)N1CCC[C@H]1C(=O)N[C@@H](CO)C(N)=O)C(C)C [Example 16] (H-Y[dA]EGTFISDYSILLDKK([AEEA-AEEA-γGlu-C18 diacid])AQ[Aib]DFVEWLLAQGPSSGAPPPS-NH2)	0.0438	99.2
CC[C@H](C)[C@H](NC(=O)[C@H](CO)NC(=O)[C@H](Cc1ccc(O)cc1)NC(=O)[C@H](CC(=O)O)NC(=O)[C@H](CO)NC(=O)[C@@H](NC(=O)[C@H](Cc1ccccc1)NC(=O)[C@@H](NC(=O)CNC(=O)[C@H](CCC(=O)O)NC(=O)[C@@H](C)NC(=O)[C@@H](N)Cc1ccc(O)cc1)[C@@H](C)O)[C@@H](C)CC)C(=O)N[C@@H](CC(C)C)C(=O)N[C@@H](CC(C)C)C(=O)N[C@@H](CC(=O)O)C(=O)N[C@@H](CCCCN)C(=O)N[C@@H](CCCCNC(=O)COCCOCCNC(=O)COCCOCCNC(=O)CC[C@H](NC(=O)CCCCCCCCCCCCCCCCC(=O)O)C(=O)O)C(=O)N[C@@H](C)C(=O)N[C@@H](CCC(N)=O)C(=O)NC(C)(C)C(=O)N[C@@H](CC(=O)O)C(=O)N[C@@H](Cc1ccccc1)C(=O)N[C@H](C(=O)N[C@@H](CC(N)=O)C(=O)N[C@@H](Cc1c[nH]c2ccccc12)C(=O)N[C@@H](CC(C)C)C(=O)N[C@@H](CC(C)C)C(=O)N[C@@H](C)C(=O)NCC(=O)NCC(=O)N1CCC[C@H]1C(=O)N[C@@H](CO)C(=O)N[C@@H](CO)C(=O)NCC(=O)N[C@@H](C)C(=O)N1CCC[C@H]1C(=O)N1CCC[C@H]1C(=O)N1CCC[C@H]1C(=O)N[C@@H](CO)C(N)=O)C(C)C [Example 19] (H-Y[dA]EGTFISDYSILLDKK([AEEA-AEEA-γGlu-C18 diacid])AQ[Aib]DFVNWLLAGGPSSGAPPPS-NH2)	0.0469	15.2
CC[C@H](C)[C@H](NC(=O)[C@H](Cc1ccccc1)NC(=O)[C@@H](NC(=O)CNC(=O)[C@H](CCC(=O)O)NC(=O)C(C)(C)NC(=O)[C@@H](N)Cc1ccc(O)cc1)[C@@H](C)O)C(=O)N[C@@H](CO)C(=O)N[C@@H](CC(=O)O)C(=O)N[C@@H](Cc1ccc(O)cc1)C(=O)N[C@@H](CO)C(=O)N[C@H](C(=O)N[C@@](C)(CC(C)C)C(=O)N[C@@H](CC(C)C)C(=O)N[C@@H](CC(=O)O)C(=O)N[C@@H](CCCN)C(=O)N[C@@H](CCCCNC(=O)COCCOCCNC(=O)COCCOCCNC(=O)CC[C@H](NC(=O)CCCCCCCCCCCCCCCCCCC(=O)O)C(=O)O)C(=O)N[C@@H](Cc1c[nH]cn1)C(=O)N[C@@H](CCC(N)=O)C(=O)NC(C)(C)C(=O)N[C@@H](CC(=O)O)C(=O)N[C@@H](Cc1ccccc1)C(=O)N[C@H](C(=O)N[C@@H](CCC(=O)O)C(=O)N[C@@H](Cc1ccncc1)C(=O)N[C@@H](CC(C)C)C(=O)N[C@@H](CC(C)C)C(=O)N[C@@H](CCC(=O)O)C(=O)N[C@H](C(=O)NCC(=O)N1CCC[C@H]1C(=O)N[C@@H](CO)C(=O)N[C@@H](CO)C(=O)NCC(=O)N[C@@H](C)C(=O)N1CCC[C@H]1C(=O)N1CCC[C@H]1C(=O)N1CCC[C@H]1C(=O)N[C@@H](CO)C(N)=O)[C@@H](C)O)C(C)C)[C@@H](C)CC [Example 80] (H-Y[Aib]EGTFISDYSI[αMeL]LD[Orn]K([AEEA-AEEA-γGlu-C20 diacid])HQ[Aib]DFVE[4Pal]LLETGPSSGAPPPS-NH2)	0.0828	> 906
